From paper PMC3914206

Tests used:
Assay in all cases: KiNativ chemical proteomics profiling in HeLa and PC3 cell lysates
Type in all cases: binding
[1] = target: T1, selected panels of kinases in HeLa and PC3 cell lysates (Homo sapiens, UniProt P48729); conditions: 10 uM; proteome PC3; peptide DIk[…]; labeling site Lys2
T1 construct: endogenous in cells; host or cells: HeLa and PC3 cell lysates

[2] = target: T2, selected panels of kinases in HeLa and PC3 cell lysates (Homo sapiens, UniProt P41743); conditions: 10 uM; PKCi; peptide IYAMkVVK; proteome HEL; labeling site Lys1
T2 construct: endogenous in cells; host or cells: HeLa and PC3 cell lysates

[3] = target: T3, selected panels of kinases in HeLa and PC3 cell lysates (Homo sapiens, UniProt P25098); conditions: 10 uM; proteome HEL; peptide DLk[…]; labeling site Lys2
T3 construct: endogenous in cells; host or cells: HeLa and PC3 cell lysates

[4] = target: T4, selected panels of kinases in HeLa and PC3 cell lysates (Homo sapiens, UniProt Q15831); conditions: 10 uM, peptide DIk[…], labeling site Lys2
T4 construct: endogenous in cells; host or cells: HeLa and PC3 cell lysates
T4 sequence (Q15831 1-433): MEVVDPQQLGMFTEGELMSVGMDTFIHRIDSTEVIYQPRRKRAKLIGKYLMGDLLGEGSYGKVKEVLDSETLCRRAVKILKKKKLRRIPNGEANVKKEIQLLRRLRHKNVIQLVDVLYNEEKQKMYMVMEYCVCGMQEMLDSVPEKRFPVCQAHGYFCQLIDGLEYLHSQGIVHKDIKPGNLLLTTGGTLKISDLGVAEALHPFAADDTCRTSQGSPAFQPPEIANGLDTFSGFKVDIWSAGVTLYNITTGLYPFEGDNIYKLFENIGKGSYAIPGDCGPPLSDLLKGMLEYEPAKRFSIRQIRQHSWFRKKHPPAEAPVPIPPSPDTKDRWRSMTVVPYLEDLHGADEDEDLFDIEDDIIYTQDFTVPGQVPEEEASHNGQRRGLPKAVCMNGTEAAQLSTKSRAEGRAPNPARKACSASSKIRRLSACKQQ

[5] = target: T5, selected panels of kinases in HeLa and PC3 cell lysates (Homo sapiens, UniProt Q04912); conditions: 10 uM; RON; peptide IQCAIkSLSR; proteome PC3; labeling site Lys1
T5 construct: endogenous in cells; host or cells: HeLa and PC3 cell lysates

[6] = target: T6, selected panels of kinases in HeLa and PC3 cell lysates (Homo sapiens, UniProt O75385); conditions: 10 uM; ULK1; peptide DLk[…]; proteome HEL; labeling site Lys2
T6 construct: endogenous in cells; host or cells: HeLa and PC3 cell lysates

[7] = target: T7, selected panels of kinases in HeLa and PC3 cell lysates (Homo sapiens, UniProt P52333); conditions: 10 uM; proteome HEL; peptide IADFGLAkLLPLDKDYYVVR; labeling site Activation Loop
T7 construct: endogenous in cells; host or cells: HeLa and PC3 cell lysates

[8] = target: T8, selected panels of kinases in HeLa and PC3 cell lysates (Homo sapiens, UniProt Q9NRM7); conditions: 10 uM; proteome HEL; peptide VDTHALYAMkTLR; labeling site Lys1
T8 construct: endogenous in cells; host or cells: HeLa and PC3 cell lysates

[9] = target: T9, selected panels of kinases in HeLa and PC3 cell lysates (Homo sapiens, UniProt Q96BR1); conditions: 10 uM; SGK3; peptide FYAVkVLQK; proteome HEL; labeling site Lys1
T9 construct: endogenous in cells; host or cells: HeLa and PC3 cell lysates

[10] = target: T10, selected panels of kinases in HeLa and PC3 cell lysates (Homo sapiens, UniProt Q9UBS0); conditions: 10 uM; p70S6Kb; peptide DLk[…]; proteome HEL; labeling site Lys2
T10 construct: endogenous in cells; host or cells: HeLa and PC3 cell lysates

[11] = target: T11, selected panels of kinases in HeLa and PC3 cell lysates (Homo sapiens, UniProt O75460); conditions: 10 uM; proteome HEL; peptide DLk[…]; labeling site Lys2
T11 construct: endogenous in cells; host or cells: HeLa and PC3 cell lysates

[12] = target: T12, selected panels of kinases in HeLa and PC3 cell lysates (Homo sapiens, UniProt P23443); conditions: 10 uM, peptide DLk[…], labeling site Lys2; for % Inhibition p70S6K: proteome PC3; for % Inhibiton, p70S6K: proteome HEL
T12 construct: endogenous in cells; host or cells: HeLa and PC3 cell lysates

[13] = target: T13, selected panels of kinases in HeLa and PC3 cell lysates (Homo sapiens, UniProt O75716); conditions: 10 uM, peptide DLk[…], labeling site Lys2
T13 construct: endogenous in cells; host or cells: HeLa and PC3 cell lysates

[14] = target: T14, selected panels of kinases in HeLa and PC3 cell lysates (Homo sapiens, UniProt P49840); conditions: 10 uM; proteome HEL; peptide DIk[…]; labeling site Lys2
T14 construct: endogenous in cells; host or cells: HeLa and PC3 cell lysates

[15] = target: T15, selected panels of kinases in HeLa and PC3 cell lysates (Homo sapiens, UniProt Q9Y4K4); conditions: 10 uM; proteome PC3; peptide […]kIIK; labeling site Lys1
T15 construct: endogenous in cells; host or cells: HeLa and PC3 cell lysates

[16] = target: T16, selected panels of kinases in HeLa and PC3 cell lysates (Homo sapiens, UniProt P51812); conditions: 10 uM; for % Inhibition RSK2 domain1: peptide LTDFGLSkESIDHEKK, labeling site Activation Loop
T16 construct: endogenous in cells; host or cells: HeLa and PC3 cell lysates

[17] = target: T17, selected panels of kinases in HeLa and PC3 cell lysates (Homo sapiens, UniProt P54760); conditions: 10 uM; proteome PC3; peptide […]kIPIR; labeling site Activation Loop
T17 construct: endogenous in cells; host or cells: HeLa and PC3 cell lysates

[18] = target: T18, selected panels of kinases in HeLa and PC3 cell lysates (Homo sapiens, UniProt Q9NRH2); conditions: 10 uM; SNRK; peptide DLkPENVVFFEK; proteome PC3; labeling site Lys2
T18 construct: endogenous in cells; host or cells: HeLa and PC3 cell lysates

[19] = target: T19, selected panels of kinases in HeLa and PC3 cell lysates (Homo sapiens, UniProt P23743); conditions: 10 uM; proteome HEL; peptide […]kSGGK; labeling site ATP
T19 construct: endogenous in cells; host or cells: HeLa and PC3 cell lysates

[20] = target: T20, selected panels of kinases in HeLa and PC3 cell lysates (Homo sapiens, UniProt P21709); conditions: 10 uM; proteome PC3; peptide […]kIPIR; labeling site Activation Loop
T20 construct: endogenous in cells; host or cells: HeLa and PC3 cell lysates

[21] = target: T21, selected panels of kinases in HeLa and PC3 cell lysates (Homo sapiens, UniProt P49841); conditions: 10 uM; proteome PC3; peptide DIk[…]; labeling site Lys2
T21 construct: endogenous in cells; host or cells: HeLa and PC3 cell lysates

[22] = target: T22, selected panels of kinases in HeLa and PC3 cell lysates (Homo sapiens, UniProt P43405); conditions: 10 uM; SYK; peptide ISDFGLSkALR; proteome HEL; labeling site Activation Loop
T22 construct: endogenous in cells; host or cells: HeLa and PC3 cell lysates

[23] = target: T23, selected panels of kinases in HeLa and PC3 cell lysates (Homo sapiens, UniProt Q9UBF8); conditions: 10 uM, PI4KB, peptide […]kDK, labeling site ATP
T23 construct: endogenous in cells; host or cells: HeLa and PC3 cell lysates

[24] = peptide DLk[…], proteome PC3, labeling site Lys2
[25] = peptide Sk[…], proteome HEL, labeling site Protein Kinase Domain
[26] = peptide Sk[…], proteome PC3, labeling site Protein Kinase Domain

T12 sequence (P23443 whole entry): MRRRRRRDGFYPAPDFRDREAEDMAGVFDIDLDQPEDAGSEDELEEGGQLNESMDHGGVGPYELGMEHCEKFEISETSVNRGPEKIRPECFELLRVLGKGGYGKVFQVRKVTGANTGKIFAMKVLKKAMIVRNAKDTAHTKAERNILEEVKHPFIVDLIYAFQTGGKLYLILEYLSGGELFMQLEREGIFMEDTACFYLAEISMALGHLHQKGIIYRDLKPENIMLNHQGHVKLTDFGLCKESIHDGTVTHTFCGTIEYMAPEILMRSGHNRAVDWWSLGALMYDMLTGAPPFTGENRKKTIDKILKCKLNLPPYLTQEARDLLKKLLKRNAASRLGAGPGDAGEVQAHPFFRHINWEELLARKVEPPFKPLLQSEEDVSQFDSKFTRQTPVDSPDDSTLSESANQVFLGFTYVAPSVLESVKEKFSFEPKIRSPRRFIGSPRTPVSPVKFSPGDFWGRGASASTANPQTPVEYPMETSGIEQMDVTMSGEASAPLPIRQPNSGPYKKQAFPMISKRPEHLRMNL
T23 sequence (Q9UBF8 whole entry): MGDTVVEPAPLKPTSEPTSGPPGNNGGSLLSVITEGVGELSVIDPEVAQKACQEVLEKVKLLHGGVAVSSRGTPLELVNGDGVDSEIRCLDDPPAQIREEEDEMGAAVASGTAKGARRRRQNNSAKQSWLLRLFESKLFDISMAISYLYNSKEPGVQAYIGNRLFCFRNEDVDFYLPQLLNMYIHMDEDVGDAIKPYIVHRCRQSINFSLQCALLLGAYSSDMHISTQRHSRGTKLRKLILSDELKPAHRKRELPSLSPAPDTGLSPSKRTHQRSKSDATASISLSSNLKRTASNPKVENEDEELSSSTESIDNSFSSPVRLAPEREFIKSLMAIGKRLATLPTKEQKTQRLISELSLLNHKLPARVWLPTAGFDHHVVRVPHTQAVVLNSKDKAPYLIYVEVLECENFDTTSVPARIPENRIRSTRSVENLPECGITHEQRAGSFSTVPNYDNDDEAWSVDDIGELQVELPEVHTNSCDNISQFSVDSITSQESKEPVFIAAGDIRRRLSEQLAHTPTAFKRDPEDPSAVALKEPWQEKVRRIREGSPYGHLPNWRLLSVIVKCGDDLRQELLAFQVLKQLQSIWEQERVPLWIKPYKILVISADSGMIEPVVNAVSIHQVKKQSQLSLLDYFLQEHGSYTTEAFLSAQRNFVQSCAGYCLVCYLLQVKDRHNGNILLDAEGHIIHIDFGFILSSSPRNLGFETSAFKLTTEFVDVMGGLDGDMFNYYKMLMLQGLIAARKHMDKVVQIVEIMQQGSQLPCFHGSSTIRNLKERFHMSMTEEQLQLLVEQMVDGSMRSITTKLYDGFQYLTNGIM
T16 sequence (P51812 whole entry, the tested form may be a part): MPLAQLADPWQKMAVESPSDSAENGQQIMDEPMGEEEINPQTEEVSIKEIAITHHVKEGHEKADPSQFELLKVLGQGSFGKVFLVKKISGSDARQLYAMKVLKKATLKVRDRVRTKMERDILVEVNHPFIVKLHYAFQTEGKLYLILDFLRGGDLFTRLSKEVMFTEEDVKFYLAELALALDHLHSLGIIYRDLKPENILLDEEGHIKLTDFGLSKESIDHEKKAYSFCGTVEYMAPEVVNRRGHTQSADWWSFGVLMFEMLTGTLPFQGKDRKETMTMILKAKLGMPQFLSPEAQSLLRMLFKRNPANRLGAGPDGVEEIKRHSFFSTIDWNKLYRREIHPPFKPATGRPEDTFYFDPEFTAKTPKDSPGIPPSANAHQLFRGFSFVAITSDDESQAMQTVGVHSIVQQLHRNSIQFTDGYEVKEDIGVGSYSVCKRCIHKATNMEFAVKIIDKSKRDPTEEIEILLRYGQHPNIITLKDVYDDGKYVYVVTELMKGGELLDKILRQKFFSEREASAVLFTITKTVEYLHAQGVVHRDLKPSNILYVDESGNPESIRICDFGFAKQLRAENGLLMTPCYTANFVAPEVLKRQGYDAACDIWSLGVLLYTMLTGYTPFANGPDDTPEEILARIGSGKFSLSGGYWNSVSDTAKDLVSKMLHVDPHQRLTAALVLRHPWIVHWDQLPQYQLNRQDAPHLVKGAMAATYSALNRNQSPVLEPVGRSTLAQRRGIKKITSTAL
T13 sequence (O75716 whole entry): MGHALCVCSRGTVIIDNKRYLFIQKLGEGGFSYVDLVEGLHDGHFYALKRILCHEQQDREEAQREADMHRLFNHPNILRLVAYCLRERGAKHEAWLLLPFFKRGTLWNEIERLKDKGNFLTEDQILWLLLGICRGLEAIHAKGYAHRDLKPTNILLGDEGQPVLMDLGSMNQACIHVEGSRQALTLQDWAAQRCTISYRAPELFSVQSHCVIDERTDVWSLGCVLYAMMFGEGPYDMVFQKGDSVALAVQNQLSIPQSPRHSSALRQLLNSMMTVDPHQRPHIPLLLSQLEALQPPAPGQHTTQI
T8 sequence (Q9NRM7 whole entry): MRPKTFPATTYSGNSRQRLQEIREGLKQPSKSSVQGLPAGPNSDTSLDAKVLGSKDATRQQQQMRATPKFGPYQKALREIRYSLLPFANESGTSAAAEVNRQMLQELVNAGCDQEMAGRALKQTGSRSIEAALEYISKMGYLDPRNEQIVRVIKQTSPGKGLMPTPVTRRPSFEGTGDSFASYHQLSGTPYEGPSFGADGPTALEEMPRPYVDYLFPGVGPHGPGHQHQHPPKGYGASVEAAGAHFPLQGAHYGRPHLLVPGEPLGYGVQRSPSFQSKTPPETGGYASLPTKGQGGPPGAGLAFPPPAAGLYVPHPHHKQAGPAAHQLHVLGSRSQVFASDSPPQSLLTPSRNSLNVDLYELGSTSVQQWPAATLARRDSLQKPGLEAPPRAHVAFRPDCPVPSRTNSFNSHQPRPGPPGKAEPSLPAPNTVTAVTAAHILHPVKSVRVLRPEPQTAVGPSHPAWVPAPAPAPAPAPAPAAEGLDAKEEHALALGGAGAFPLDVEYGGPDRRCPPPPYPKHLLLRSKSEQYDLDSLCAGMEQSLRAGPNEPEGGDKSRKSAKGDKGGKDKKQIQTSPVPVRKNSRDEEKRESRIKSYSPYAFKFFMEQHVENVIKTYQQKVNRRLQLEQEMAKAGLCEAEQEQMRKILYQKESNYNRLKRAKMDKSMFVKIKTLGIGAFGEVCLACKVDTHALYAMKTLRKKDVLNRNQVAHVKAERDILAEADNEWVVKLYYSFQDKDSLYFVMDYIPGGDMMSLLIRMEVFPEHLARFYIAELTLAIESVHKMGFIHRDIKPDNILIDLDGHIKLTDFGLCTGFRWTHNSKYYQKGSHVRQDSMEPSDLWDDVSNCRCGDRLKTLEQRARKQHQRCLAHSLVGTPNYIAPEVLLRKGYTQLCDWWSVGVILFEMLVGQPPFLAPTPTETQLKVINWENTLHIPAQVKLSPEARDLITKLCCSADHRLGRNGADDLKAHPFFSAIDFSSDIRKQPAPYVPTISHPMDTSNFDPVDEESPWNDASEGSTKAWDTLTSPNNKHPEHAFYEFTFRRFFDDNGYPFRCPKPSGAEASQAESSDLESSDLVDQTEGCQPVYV
T10 sequence (Q9UBS0 whole entry): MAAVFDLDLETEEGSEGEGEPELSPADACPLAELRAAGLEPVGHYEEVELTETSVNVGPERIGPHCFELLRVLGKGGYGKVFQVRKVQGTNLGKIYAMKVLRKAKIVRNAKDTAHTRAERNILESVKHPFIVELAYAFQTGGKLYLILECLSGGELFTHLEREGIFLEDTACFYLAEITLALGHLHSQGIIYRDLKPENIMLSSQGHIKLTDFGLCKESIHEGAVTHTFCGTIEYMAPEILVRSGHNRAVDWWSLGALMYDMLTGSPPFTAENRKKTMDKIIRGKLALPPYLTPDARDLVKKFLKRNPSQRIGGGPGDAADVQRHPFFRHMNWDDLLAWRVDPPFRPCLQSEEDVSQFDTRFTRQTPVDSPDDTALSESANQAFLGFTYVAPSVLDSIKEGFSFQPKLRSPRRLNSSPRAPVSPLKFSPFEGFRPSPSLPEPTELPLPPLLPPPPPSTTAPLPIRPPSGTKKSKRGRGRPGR
T20 sequence (P21709 26-976): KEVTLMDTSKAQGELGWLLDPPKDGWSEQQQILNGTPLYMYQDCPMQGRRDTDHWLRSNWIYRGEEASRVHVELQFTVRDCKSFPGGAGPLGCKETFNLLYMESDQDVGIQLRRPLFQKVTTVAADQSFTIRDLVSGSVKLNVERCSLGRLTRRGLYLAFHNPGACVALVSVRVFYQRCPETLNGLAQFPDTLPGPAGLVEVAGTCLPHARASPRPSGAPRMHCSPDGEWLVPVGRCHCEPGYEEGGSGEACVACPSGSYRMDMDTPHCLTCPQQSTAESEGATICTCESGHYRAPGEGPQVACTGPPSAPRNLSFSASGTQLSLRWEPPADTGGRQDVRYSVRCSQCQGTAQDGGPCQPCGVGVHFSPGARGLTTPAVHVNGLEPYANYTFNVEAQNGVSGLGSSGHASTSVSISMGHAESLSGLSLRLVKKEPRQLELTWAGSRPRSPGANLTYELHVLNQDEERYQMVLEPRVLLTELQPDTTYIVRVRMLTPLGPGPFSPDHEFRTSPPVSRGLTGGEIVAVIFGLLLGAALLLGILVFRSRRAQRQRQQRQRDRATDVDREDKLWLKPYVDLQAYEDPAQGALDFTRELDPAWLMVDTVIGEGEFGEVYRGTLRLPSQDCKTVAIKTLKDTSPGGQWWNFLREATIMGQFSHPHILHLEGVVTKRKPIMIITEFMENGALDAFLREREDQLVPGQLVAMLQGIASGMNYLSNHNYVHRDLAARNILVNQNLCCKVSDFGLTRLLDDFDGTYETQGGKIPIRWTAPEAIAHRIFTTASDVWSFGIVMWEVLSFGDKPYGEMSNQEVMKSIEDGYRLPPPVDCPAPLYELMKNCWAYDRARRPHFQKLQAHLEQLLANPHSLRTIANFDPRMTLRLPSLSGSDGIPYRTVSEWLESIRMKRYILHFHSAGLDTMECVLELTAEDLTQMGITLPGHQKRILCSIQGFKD

| Structure (SMILES) | % Inhibiton, CK1a [1] | % Inhibition PKCi [2] | % Inhibiton, BARK1 [3] | % Inhibiton, LKB1 ([4]; proteome HEL) | % Inhibiton, LKB1 ([4]; proteome PC3) | % Inhibition RON [5] | % Inhibition ULK1 [6] | % Inhibiton, JAK3 domain2 [7] | % Inhibiton, LATS2 [8] | % Inhibition SGK3 [9] | % Inhibition p70S6Kb [10] | % Inhibiton, IRE1 [11] | % Inhibition p70S6K [12] | % Inhibiton, p70S6K [12] | % Inhibiton, MPSK1 ([13]; proteome HEL) | % Inhibiton, MPSK1 ([13]; proteome PC3) | % Inhibiton, GSK3A [14] | % Inhibiton, KHS1 [15] | % Inhibition RSK2 domain1 ([16]; proteome HEL) | % Inhibition RSK2 domain2 [16, 24] | also measured |
| --- | --- | --- | --- | --- | --- | --- | --- | --- | --- | --- | --- | --- | --- | --- | --- | --- | --- | --- | --- | --- | --- |
| CCOc1cc(C(=O)N2CCC(N3CCN(C)CC3)CC2)ccc1Nc1ncc2c(n1)N(C1CCCC1)c1ccccc1C(=O)N2C [Compound 26] | -0.3% | -2.8% | 10.9% | 6.4% | -0.8% | 11.1% | -5.1% | ~53.9% | 3.2% | 25.5% | -21.4% | -19% | 10% | -24.4% | -9.4% | 5.8% | 10.2% | -7.1% | 7.2% | -0.5% | % Inhibition RSK2 domain2 [16, 25]: 7.4%; % Inhibition RSK2 domain2 [16, 26]: -14.6%; % Inhibiton, EphB4 [17]: 17%; % Inhibition SNRK [18]: -6.9%; % Inhibiton, DGKA [19]: 5.7%; % Inhibiton, EphA1 [20]: -0.1%; % Inhibiton, GSK3B [21]: -3%; % Inhibition SYK [22]: -0.8%; % Inhibition PI4KB ([23]; proteome HEL): -1.9%; % Inhibition PI4KB ([23]; proteome PC3): 3.6% |
| COc1cc(C(=O)N2CCC(N3CCN(C)CC3)CC2)ccc1Nc1ncc2c(n1)N(C1CCCC1)c1ccccc1C(=O)N2C [Compound 25, 11-cyclopentyl-2-((2-methoxy-4-(4-(4-methylpiperazin-1-yl)piperidine-1-carbonyl)phenyl)amino)-5-methyl-5H-benzo[e]pyrimido[5,4-b][1,4]diazepin-6(11H)-one] | 9.4% | 13.3% | 12.0% | -0.266% | -4.1% | -17.5% | 6.4% | 31.8% | -4.2% | 8.2% | 8.4% | -1.8% | 3.9% | 16.9% | 29.5% | -4.3% | 4.1% | -6.6% | 1.2% | -4.3% | % Inhibition RSK2 domain2 [16, 25]: 1.3%; % Inhibition RSK2 domain2 [16, 26]: 1.9%; % Inhibiton, EphB4 [17]: -13.0%; % Inhibition SNRK [18]: -15.7%; % Inhibiton, DGKA [19]: 8.1%; % Inhibiton, EphA1 [20]: -1.8%; % Inhibiton, GSK3B [21]: 4.6%; % Inhibition SYK [22]: 5.7%; % Inhibition PI4KB ([23]; proteome HEL): -21.6%; % Inhibition PI4KB ([23]; proteome PC3): -6.1% |
